Measured values reported in PubChem BioAssay (NCI).
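Cells were grown in 96-well plates and exposed to each compound for 48 hours at five concentrations; endpoints were interpolated linearly between bracketing concentrations, or set to the highest concentration if not reached. At the GI50, growth is halved. At the TGI there is no net growth.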

Assays:
Assay in all cases: NCI-60 cell line screen, 48 h
MDA-MB-435 = system: MDA-MB-435
COLO 205 colon = system: COLO 205 colon
UACC-62 melanoma = system: UACC-62 melanoma
SR leukemia = system: SR leukemia
SK-OV-3 ovarian = system: SK-OV-3 ovarian
UO-31 renal = system: UO-31 renal
RXF 393 renal = system: RXF 393 renal
SW-620 colon = system: SW-620 colon
LOX IMVI melanoma = system: LOX IMVI melanoma
A498 renal = system: A498 renal

| Compound | TGI (MDA-MB-435) | TGI (COLO 205 colon) | TGI (UACC-62 melanoma) | TGI (SR leukemia) | TGI (SK-OV-3 ovarian) | TGI (UO-31 renal) | TGI (RXF 393 renal) | TGI (SW-620 colon) | TGI (LOX IMVI melanoma) | TGI (A498 renal) | GI50 (MDA-MB-435) | GI50 (COLO 205 colon) | GI50 (UACC-62 melanoma) | GI50 (SR leukemia) | GI50 (SK-OV-3 ovarian) | GI50 (UO-31 renal) | GI50 (RXF 393 renal) | GI50 (SW-620 colon) | GI50 (LOX IMVI melanoma) | GI50 (A498 renal) |
| --- | --- | --- | --- | --- | --- | --- | --- | --- | --- | --- | --- | --- | --- | --- | --- | --- | --- | --- | --- | --- |
| CCOCC(=O)N[C@H]1CCc2cc(OC)c(OC)c(OC)c2-c2ccc(SC)c(=O)cc21 | < 0.01 µM | < 0.01 µM | > 100 µM | > 100 µM | 0.398 µM | > 100 µM | 2.33 µM | > 100 µM | 69 µM | 1.49 µM | – | – | – | – | – | – | – | – | – | – |
| Nc1nc2c(c3ncccc13)C(c1ccc(Cl)c(Cl)c1)Cc1ncccc1-2 (stereo unspecified) | 2.95 µM | 7.3 µM | 12.5 µM | 13 µM | 12.6 µM | 22 µM | 5.25 µM | 19 µM | 16.2 µM | 5.85 µM | 0.867 µM | 2.65 µM | 2.28 µM | 2.46 µM | 3.49 µM | 4.99 µM | 1.52 µM | 3.5 µM | 4.4 µM | 1.93 µM |
| ON(CCc1ccncc1)Cc1ccccc1 | > 100 µM | > 100 µM | > 100 µM | > 100 µM | > 100 µM | > 100 µM | > 100 µM | > 100 µM | > 100 µM | > 100 µM | – | – | – | – | – | – | – | – | – | – |
| Cc1nc2cncc(C#Cc3cncc(C(=O)Nc4ccc(CN5CCN(C)CC5)c(C(F)(F)F)c4)c3)c2nc1C | 3.03 µM | 5.96 µM | 1.47 µM | 3.81 µM | 5.62 µM | 1.06 µM | 1.76 µM | 1.64 µM | 0.807 µM | 0.772 µM | 0.21 µM | 0.196 µM | 0.24 µM | 0.46 µM | 0.251 µM | 0.256 µM | 0.268 µM | 0.284 µM | 0.208 µM | 0.0756 µM |
| CC1=C(C(=O)Nc2ccc3[nH]ncc3c2)C(c2ccc(F)cc2)NC(=O)N1 (stereo unspecified) | > 25 µM | > 25 µM | > 25 µM | > 25 µM | > 25 µM | > 25 µM | > 25 µM | > 25 µM | > 25 µM | > 25 µM | > 25 µM | > 25 µM | > 25 µM | 19.2 µM | > 25 µM | > 17.5 µM | > 14.6 µM | > 25 µM | > 25 µM | > 14.6 µM |
| OCc1cccc(-c2ccc3ncc(-c4nc(NC5CC5)ncc4F)n3c2)c1 | 0.919 µM | 0.656 µM | 0.698 µM | > 38.9 µM | 7.06 µM | 1 µM | 0.356 µM | 0.971 µM | 1.21 µM | 0.367 µM | 0.284 µM | 0.242 µM | 0.248 µM | 0.0541 µM | 0.448 µM | 0.3 µM | 0.139 µM | 0.258 µM | 0.118 µM | 0.152 µM |
| NC(=O)C(Br)CBr (stereo unspecified) | 4.33 µM | 2.56 µM | 6.07 µM | 2.56 µM | 25.1 µM | 12.7 µM | 2.7 µM | 2.79 µM | 5.93 µM | 29 µM | 1.74 µM | 1.03 µM | 2.14 µM | 0.394 µM | 12 µM | 2.55 µM | 1.27 µM | 1.29 µM | 1.98 µM | 15.3 µM |
| C=C(C)C(=O)OC1CC2(C)OC2CC(OC(C)=O)/C(C)=C/C2OC(=O)C(=C)C21 (stereo unspecified) | 7.5 µM | 3.42 µM | 17.8 µM | 4.47 µM | > 91.3 µM | 12.5 µM | 4.64 µM | 6.98 µM | 7.67 µM | 26.4 µM | – | – | – | – | – | – | – | – | – | – |
| Nc1ccc(-c2nc3ccccc3[nH]2)c(O)c1 | 64.6 µM | > 100 µM | 95.5 µM | > 100 µM | > 100 µM | > 100 µM | > 100 µM | > 100 µM | > 100 µM | 68.5 µM | 28.2 µM | 35 µM | 25.2 µM | 26.2 µM | > 100 µM | 43.8 µM | 35.4 µM | 29.1 µM | 40.8 µM | 31.9 µM |
| COc1ccc(Nc2ncccc2/C=C/C(=O)c2cc(OC)c(OC)c(OC)c2)cc1 | 3.36 µM | 3.06 µM | 3.3 µM | 3.98 µM | 8.56 µM | 2.33 µM | 2.82 µM | 2.43 µM | 2.48 µM | 11.7 µM | 1.46 µM | 1.69 µM | 1.56 µM | 0.464 µM | 2.72 µM | 1.12 µM | 1.49 µM | 1.2 µM | 1.23 µM | 3.19 µM |
| CC/C=C\C/C=C\C[C@H](O)C/C=C1/C(=O)C=C[C@H]1C/C=C\CCC(=O)OC | > 8.25 µM | > 8.25 µM | 7.16 µM | > 8.25 µM | > 8.25 µM | > 8.25 µM | > 8.25 µM | > 8.25 µM | 2.85 µM | > 8.25 µM | 2.35 µM | 3.87 µM | 1.79 µM | 1.61 µM | > 8.25 µM | 7.58 µM | 4.99 µM | 2.19 µM | 1.36 µM | > 8.25 µM |
| Cn1c(=O)c(Oc2cccc(F)c2)cc2cnc(NC3CCOCC3)nc21 | > 25 µM | > 25 µM | > 25 µM | > 25 µM | > 25 µM | > 13 µM | > 25 µM | > 25 µM | > 25 µM | > 25 µM | > 25 µM | > 25 µM | > 25 µM | > 25 µM | > 25 µM | > 8.3 µM | > 25 µM | > 25 µM | > 25 µM | 8.11 µM |
| CCCCCCCCCCCCCC[P+](CCCCCC)(CCCCCC)CCCCCC | 0.391 µM | 2.08 µM | 1.9 µM | 0.0608 µM | – | – | 1.4 µM | 1.15 µM | 0.497 µM | 1.03 µM | 0.0372 µM | 0.144 µM | 0.0422 µM | 0.0196 µM | 0.2 µM | 0.29 µM | 0.141 µM | 0.0341 µM | 0.0583 µM | – |
| O=CN1N=C(c2ccc(Nc3ccnc4cc(Cl)ccc34)cc2)CC1c1ccccc1 (stereo unspecified) | 4.67 µM | 6.15 µM | 4.16 µM | 4.9 µM | > 100 µM | > 100 µM | 21.6 µM | 9.43 µM | 3.33 µM | 6.79 µM | 1.59 µM | 2.21 µM | 1.55 µM | 1.77 µM | 11.3 µM | 3.81 µM | 2.2 µM | 2.73 µM | 1.61 µM | 1.3 µM |
| NS(=O)(=O)c1ccc(C2C3=C(CCCC3=O)OC3=C2C(=O)c2ccccc2C3=O)cc1 (stereo unspecified) | 0.357 µM | 1.29 µM | 0.567 µM | 3.88 µM | 3.76 µM | 2.92 µM | 2.84 µM | 1.33 µM | 1.04 µM | 2.57 µM | 0.19 µM | 0.348 µM | 0.24 µM | 0.47 µM | 1.99 µM | 1.55 µM | 1.45 µM | 0.417 µM | 0.136 µM | 1.28 µM |
| COc1cc([C@@H]2c3cc4c(cc3C(Br)[C@H]3COC(=O)[C@H]23)OCO4)cc(OC)c1OC (stereo partly specified) | – | 0.399 µM | > 100 µM | > 100 µM | > 100 µM | > 100 µM | 6.48 µM | > 100 µM | > 100 µM | 0.177 µM | 0.0365 µM | 0.189 µM | 0.187 µM | 0.117 µM | 0.312 µM | 0.418 µM | 0.0815 µM | 0.194 µM | 0.264 µM | 0.0257 µM |
| CN(C)c1ccc(C(=O)c2ccc(N(C)C)c(N)c2)cc1N | 1.25 µM | 18.5 µM | > 64.5 µM | > 16.4 µM | > 45 µM | > 67.7 µM | 18.4 µM | > 100 µM | > 100 µM | 18.1 µM | 0.422 µM | 2.32 µM | 2.32 µM | 0.406 µM | 5.57 µM | 4.02 µM | 3.76 µM | 1.14 µM | 7.75 µM | 1.03 µM |
| CCN(CC)c1ccc(N=C2C=C(C(=O)Nc3ccc(S(C)(=O)=O)cc3)C(=O)c3ccccc32)c(C)c1 | 54.8 µM | > 100 µM | > 100 µM | > 100 µM | > 100 µM | > 100 µM | > 100 µM | > 100 µM | > 100 µM | > 100 µM | 7.49 µM | 32.7 µM | 0.734 µM | 2.08 µM | 9.45 µM | 67.5 µM | > 100 µM | > 100 µM | 7.98 µM | > 100 µM |
| N#Cc1c2ccccc2c2n1-c1ccccc1OC(c1ccccc1)C2=O (stereo unspecified) | 9.19 µM | 16.4 µM | 18 µM | 15.6 µM | 48.6 µM | 12 µM | 9.55 µM | 16.7 µM | 6.82 µM | 6.89 µM | 2.88 µM | 4.67 µM | 3.81 µM | 3.69 µM | 6.03 µM | 3.19 µM | 3.15 µM | 3.9 µM | 2.45 µM | 1.84 µM |
| C[C@@H]1COCCN1c1nc(-c2cnc(N)cc2C(F)F)nc(N2[C@H](C)COC[C@@H]2C)n1 | 10.6 µM | 12.5 µM | 2.74 µM | 4.88 µM | 1.34 µM | 11 µM | 0.485 µM | 13 µM | 11.3 µM | 0.345 µM | 0.321 µM | 0.371 µM | 0.116 µM | 0.189 µM | 0.166 µM | 0.0575 µM | 0.0668 µM | 0.419 µM | 0.206 µM | 0.0507 µM |
| N#Cc1cccc(C(=O)c2cnn(-c3ccc(F)cc3)c2N)c1 | > 25 µM | > 25 µM | > 25 µM | > 25 µM | > 25 µM | > 25 µM | > 25 µM | > 25 µM | > 25 µM | > 25 µM | > 25 µM | > 25 µM | > 25 µM | > 25 µM | > 25 µM | > 25 µM | > 23.4 µM | > 25 µM | > 25 µM | > 25 µM |
